From patent US8609659B2, “Substituted 3,8-diazabicyclo[3.2.1]octane compounds” (Neuroscienze Pharmaness S.C.A.R.L., priority 2009, dated 2013)
Like-named read-outs stand apart in the source and are kept apart here.

Assays:
δ opioidergic receptors = biological target: T1, δ opioidergic receptors (Mus musculus, UniProt P32300); assay: Radioreceptorial binding, δ opioidergic receptors ([3H]-DPDPE, mouse brain membranes); conditions: 1 nM [3H]-DPDPE, CD1 mouse brain membranes, 25° C., 60 minutes
T1 construct: from tissue; host or cells: CD1 mouse vas deferens segments (isolated organ)
T1 sequence (P32300 whole entry): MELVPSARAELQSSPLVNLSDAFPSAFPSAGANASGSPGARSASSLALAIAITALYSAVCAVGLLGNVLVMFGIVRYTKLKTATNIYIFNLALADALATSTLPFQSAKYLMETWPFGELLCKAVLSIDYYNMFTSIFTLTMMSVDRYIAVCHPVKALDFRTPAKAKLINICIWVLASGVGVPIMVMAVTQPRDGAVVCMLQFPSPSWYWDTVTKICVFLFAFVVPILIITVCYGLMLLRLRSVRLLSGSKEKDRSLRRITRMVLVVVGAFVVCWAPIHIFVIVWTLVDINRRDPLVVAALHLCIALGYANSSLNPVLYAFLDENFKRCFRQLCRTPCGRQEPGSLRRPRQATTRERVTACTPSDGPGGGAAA

k opioidergic receptors = biological target: T2, k opioidergic receptors (Mus musculus, UniProt P33534); assay: Radioreceptorial binding, k opioidergic receptors (3H-U 69.593, mouse brain membranes)
T2 construct: the complete brain (excluding the cerebellum) was quickly dissected and stored in ice; from tissue; host or cells: CD1 mouse brain (excluding cerebellum) membranes
T2 sequence (P33534 whole entry): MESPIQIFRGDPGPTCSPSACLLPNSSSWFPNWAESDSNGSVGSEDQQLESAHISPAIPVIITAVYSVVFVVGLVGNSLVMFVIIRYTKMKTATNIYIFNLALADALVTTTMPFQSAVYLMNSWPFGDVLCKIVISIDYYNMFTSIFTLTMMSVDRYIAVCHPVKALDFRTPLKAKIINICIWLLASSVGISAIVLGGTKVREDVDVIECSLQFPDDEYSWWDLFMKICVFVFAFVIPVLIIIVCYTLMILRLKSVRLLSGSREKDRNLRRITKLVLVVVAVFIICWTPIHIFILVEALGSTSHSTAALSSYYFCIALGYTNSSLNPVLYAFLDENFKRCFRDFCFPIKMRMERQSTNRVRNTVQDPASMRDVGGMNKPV
Description: The affinity of the compounds synthesized towards the opioidergic receptors μ, δ, k has been evaluated in vitro by radioreceptorial binding studies by using the method reported hereinunder.
For evaluating the affinity of a compound to a particular receptor(s) it is used a preparation of a tissue wherein the particular receptor(s) is (are) present, with which the compound is contacted. The tested compound is challenged with a radioactive labelled compound whose affinity for the same receptor(s) is known. The ability of the tested compound to displace the radioactive compound from the receptor gives an index of the affinity of the compound under test for the specific receptor. The amount of radioactivity present in the receptor-compound complex allows furthermore to calculate with great accuracy the amount of compound bound to the receptor. By said method it is therefore possible to quickly establish the affinity of a new compound towards a specific receptor and thus determine its pharmacological activity. With the same experimental protocol it is possible to evaluate the affinity of the compound towards other receptors and thus establishing the specificity degree of the compound towards these further receptors.
The experimentation has been carried out according to the guide lines of the European Community for the animal experimentation (EEC n. 86/609), by using laboratory animals (CD1 Charles River Italy male mice, Calco, LC, Italy) lodged twenty per cage, under standard stabulation conditions (temperature 22±2° C., relative humidity 60%, artificial lighting with light/dark cycle of 12 hours). The food and water were ad libitum.
Receptors k: CD1 male mice weighing 20-25 g were used. The animals were sacrificed by cervical dislocation and the complete brain (excluding the cerebellum) was quickly dissected and stored in ice. The tissue was homogeneized in 40 volumes (w/v) of Tris-HCl buffer (50 Mm, pH 7.4) by an Ultra-Turrax, then centrifuged for 20 minutes at 48,000×g in a centrifuge refrigerated at 4° C. The […] was resuspended in the same buffer and incubated at 37° C. for 30 minutes in an oscillating bath. At the end of the incubation the suspension was centrifuged at 48,000×g for 15 minutes and the obtained pellets resuspended in 10 volumes of Tris-HCl buffer. The binding experiment was carried out in a 1 ml volume of the suspension at the temperature of 25° C. with a protein content in the sample of about 800-1000 μg. Incubation was carried out for 60 minutes in the presence of various concentrations of the ligand ^3H-U 69.593 (41.7 Ci/mmole). The non specific binding was determined in the presence of U69593 (10 μM). Incubation was then interrupted by performing a quick filtration by filtration apparatus Brandell®, Gaithersburg, Md., USA), by using GF/C filters (Whatman®). Receptors μ and δ: the experiments were carried out according to the method described by Unterwald (1995), by using CD1 male mice weighing 20-25 g, lodged twenty in a cage, under standard stabulation conditions (temperature 22±2° C., relative humidity 60%, artificial lighting with light/dark cycle of 12 hours). After sacrifice, the complete brain (excluding the cerebellum) was quickly dissected. The so obtained tissues were rapidly homogenized, by a Polytron® equipment in 50 volumes of Tris HCl buffer (50 mM), pH 7.4 and the homogenate centrifuged at 48,000×g for 20 minutes at 4° C. The pellets obtained after centrifugation were suspended in 50 volumes of the same buffer and the so prepared suspensions were incubated at 37° C. for 45 minutes, in an oscillating bath, for making easier the separation of the endogenous opioids from the receptors. At the end of the incubation the suspensions were centrifuged at 48,000×g, for 20 minutes at 4° C. and the resulting pellets resuspended in 40 volumes of the Tris HCl (50 mM) buffer, pH 7.4. The suspension of cerebral membranes was used for the binding tests. […]

mouse = format: in vivo; conditions: 5 mg/Kg i.p., average ± SEM of 6 animals
Description: In the Tail Flick test it is determined the time elapsed between the exposure of one part of the mouse tail (2 cm measured from the tail tip) to a small heat source and the time when the animal moves away the tail (Ruiu) S. et al. in J. Pharmacol. Exp. Ther.; 306 (1) (2003) 363-370). This time interval is automatically calculated by a specific equipment for the Tail-Flick test (Apparatus for the Tail Flick, Ugo Basile, Italy). The equipment is provided with an infrared lamp that is the heat regulatable source. For avoiding lesions to the tail tissues a maximum latency time has been fixed (cut-off=12 sec), after which the tail is moved away from the heat source.
The values of the latency time obtained in the experimentation were expressed in MPE % (maximum possible effect %), according to the formula:
[formula] wherein: Test Latency is the time in seconds elapsed before the animal moves away the tail from the heat source, Base Latency is the time in seconds elapsed before the same, untreated animal moves away the tail from the heat source.
The analgesic potency of the compound obtained in Example 6.1 was evaluated. The compound was solubilized in an aqueous solution (carrier), formed of a mixture of a physiological solution, ethanol and Cremophor® EL in the ratios by volume: 18.5:1.0:0.5. The blank or control was the carrier. The test compound was administered by intraperitoneal (i.p.) route, by using a solution volume to obtain a dose of 5 mg/kg.
The duration of the analgesic effect was evaluated by determining the MPE % values obtained at different times (20, 40, 60, 120 minutes) from administration of the compound and of the corresponding control (carrier).
Example 13 was repeated but using the compound synthesized in Ex. 6.9. The analgesic activity was evaluated at 30, 60, 120 and 240 minutes from the administration of the compound. The compound was administered at the dose of 5 mg/Kg after solubilization in an aqueous solution (carrier) formed of physiological solution, ethanol and Cremophor® EL in the same ratios as indicated in Example 13.
In order to evaluate the property of the compounds of formula (I) in the modulation of the analgesic effect of morphine, the Tail Flick test was carried out by using either only morphine or morphine in association with the compound of Ex. 6.9. The procedure described in Ex. 13 was repeated by recording the MPE % values at different times from the administration of the tested compounds: 30, 60, 120 and 240 minutes.

SMILES	Ki (δ opioidergic receptors) [nM]	Ki (k opioidergic receptors) [nM]	MPE % (mouse; 20 min) [%]	MPE % (mouse; 40 min) [%]	MPE % (mouse; 60 min) [%]	MPE % (mouse; 120 min) [%]	Ki (k opioidergic receptors; 3H-U 69.593, CD1 mouse brain membranes, 25° C., 60 minutes, read-out: Ki k) [nM]	MPE % (mouse; 30 min) [%]	MPE % (mouse; 240 min) [%]
C=CCN1C2CCC1C1CCC2N1C(c1ccc(C(=O)N(CC)CC)cc1)c1cccc(OC)c1 (stereo not drawn) [Example 6.1, 4-[(10-allyl-9,10-diazatricyclo[4.2.1.1^2,5]dec-9-yl)-(3-methoxyphenyl)methyl]-N,N-diethylbenzamide]	0.203 ± 0.032	55 ± 25	15.1 ± 3.5	50.1 ± 12.0	20.0 ± 3.0	13.2 ± 2.8	–	–	–
C=CCN1C2CCC1C1CCC2N1C(c1ccc(C(=O)N(CC)CC)cc1)c1cccc(O)c1 (stereo not drawn) [Example 6.9, 4-[(10-allyl-9,10-diazatricyclo[4.2.1.1^2,5]dec-9-yl)-(3-hydroxyphenyl)methyl]-N,N-diethylbenzamide]	0.23 ± 0.03	–	–	–	32.8 ± 10.0	18.5 ± 2.0	4.8 ± 0.9	30.1 ± 2.7	1.2 ± 0.6
